The values that follow come from ChEMBL document CHEMBL4138182, “Aminomethylation of heliomycin: Preparation and anticancer characterization of the first series of semi-synthetic derivatives” (Eur J Med Chem, 2018).

The test system of series [1] is T-24. The series can be described thus: Induction of apoptosis n human T24 cells assessed as upregulation of p53 levels at 0.5 to 1 uM after 18 hrs by Western blot method. In kind it is functional, cell-based. (In general: In western blotting, separated proteins are transferred to a membrane and probed.)
Series [2] relates to K562. The series can be described thus: Antiproliferative activity against human K562 cells after 72 hrs by MTT assay. Format: functional, cell-based. Conditions: K562, 72 h. On the technique in general: Formazan colour is commonly taken as a measure of viable cells.
The subject of series [3] is T-24. The series can be described thus: Induction of apoptosis n human T24 cells assessed as upregulation of Bak levels at 0.5 to 1 uM after 18 hrs by Western blot method. In kind it is functional, cell-based.
Series [4] deals with CCRF-CEM. The series can be described thus: Antiproliferative activity against human CEM cells after 72 hrs by MTT assay. Format: functional, cell-based.
A short description of series [5]: Selectivity index, ratio of IC50 for HMEC1 cells to IC50 for human K562 cells. In kind it is toxicity. Conditions: HMEC1 cells and K562 cells, read-out: Ratio IC50.
The subject of series [6] is HeLa. In words: Antiproliferative activity against human HeLa cells after 72 hrs by MTT assay. Format: functional, cell-based.
Series [7] deals with HCT-116. The series can be described thus: Antiproliferative activity against human HCT116 cells after 72 hrs by MTT assay. Format: functional, cell-based. Conditions: HCT-116, 72 h.
For series [8], the system named is L1210. In words: Antiproliferative activity against mouse L1210 cells after 72 hrs by MTT assay. In kind it is functional, cell-based. Conditions: L1210, 72 h.
Series [9] can be described thus: Selectivity index, ratio of IC50 for HMEC1 cells to IC50 for human HeLa cells. In kind it is toxicity. Conditions: HMEC1 cells and HeLa cells, read-out: Ratio IC50.
Series [10] in a line: Selectivity index, ratio of IC50 for HMEC1 cells to IC50 for human HCT116 cells. Conditions: HMEC1 cells and HCT116 cells, read-out: Ratio IC50. In kind it is toxicity.
The test system of series [11] is HMEC-1. The series can be described thus: Antiproliferative activity against HMEC1 cells after 72 hrs by MTT assay. Format: cell-based. To be noted: Homo sapiens, HMEC-1, 72 h.
Series [12] concerns T-24. In words: Induction of apoptosis n human T24 cells assessed as caspase-3 cleavage at 0.5 to 1 uM after 18 hrs by Western blot method. Format: functional, cell-based.
The nature of series [13]: Selectivity index, ratio of IC50 for HMEC1 cells to IC50 for human CEM cells. In kind it is toxicity. Conditions: HMEC1 cells and CEM cells, read-out: Ratio IC50.
The nature of series [14]: Selectivity index, ratio of IC50 for HMEC1 cells to IC50 for p53 deficient human HCT116 cells. In kind it is toxicity. Conditions: HMEC1 cells and p53 deficient HCT116 cells, read-out: Ratio IC50.
In series [15] the test system is T-24. In words: Induction of apoptosis n human T24 cells assessed as downregulation of Bcl-2 levels at 0.5 to 1 uM after 18 hrs by Western blot method. In kind it is functional, cell-based.
The subject of series [16] is HCT-116. In words: Antiproliferative activity against p53 deficient human HCT116 cells after 72 hrs by MTT assay. Format: functional, cell-based. To be noted: HCT-116, 72 h.
Series [17] in a line: Antiproliferative activity against human K562/4 cells after 72 hrs by MTT assay. Format: functional, cell-based. To be noted: K562/4, 72 h.
The subject of series [18] is T-24. The series can be described thus: Growth inhibition of human T24 cells after 72 hrs by cell impedance method. Format: functional, cell-based. To be noted: T-24, 72 h.
Series [19] relates to T-24. In words: Induction of apoptosis n human T24 cells assessed as PARP cleavage at 0.5 to 1 uM after 18 hrs by Western blot method. Format: functional, cell-based.
Series [20] has as its system T-24. The series can be described thus: Induction of reactive oxygen species generation in human T24 cells at 1 uM after 30 mins by H2DCFDA dye-based flow cytometric method. In kind it is functional, cell-based. A general note: Flow cytometry measures light scatter and fluorescence of single cells or particles in a stream.
Series [21] is described as follows: Selectivity index, ratio of IC50 for HMEC1 cells to IC50 for human K562/4 cells. Conditions: HMEC1 cells and K562/4 cells, read-out: Ratio IC50. In kind it is toxicity.
Series [22] relates to T-24. In words: Induction of apoptosis n human T24 cells at 1 uM after 24 hrs by annexin V-FITC/propidium iodide staining-based flow cytometric method. In kind it is functional, cell-based.
Series [23] can be described thus: Selectivity index, ratio of IC50 for HMEC1 cells to IC50 for mouse L1210 cells. Format: toxicity. To be noted: HMEC1 cells and L1210 cells, read-out: Ratio IC50.
The subject of series [24] is Calf thymus DNA. The series can be described thus: Binding affinity to calf thymus double stranded DNA by Benesi-Hildebrand plot analysis. In kind it is nucleic-acid assay, Bos taurus.
Series [25] addresses T1, DNA topoisomerase 1 (Homo sapiens) (UniProt P11387).
T1 sequence (whole entry): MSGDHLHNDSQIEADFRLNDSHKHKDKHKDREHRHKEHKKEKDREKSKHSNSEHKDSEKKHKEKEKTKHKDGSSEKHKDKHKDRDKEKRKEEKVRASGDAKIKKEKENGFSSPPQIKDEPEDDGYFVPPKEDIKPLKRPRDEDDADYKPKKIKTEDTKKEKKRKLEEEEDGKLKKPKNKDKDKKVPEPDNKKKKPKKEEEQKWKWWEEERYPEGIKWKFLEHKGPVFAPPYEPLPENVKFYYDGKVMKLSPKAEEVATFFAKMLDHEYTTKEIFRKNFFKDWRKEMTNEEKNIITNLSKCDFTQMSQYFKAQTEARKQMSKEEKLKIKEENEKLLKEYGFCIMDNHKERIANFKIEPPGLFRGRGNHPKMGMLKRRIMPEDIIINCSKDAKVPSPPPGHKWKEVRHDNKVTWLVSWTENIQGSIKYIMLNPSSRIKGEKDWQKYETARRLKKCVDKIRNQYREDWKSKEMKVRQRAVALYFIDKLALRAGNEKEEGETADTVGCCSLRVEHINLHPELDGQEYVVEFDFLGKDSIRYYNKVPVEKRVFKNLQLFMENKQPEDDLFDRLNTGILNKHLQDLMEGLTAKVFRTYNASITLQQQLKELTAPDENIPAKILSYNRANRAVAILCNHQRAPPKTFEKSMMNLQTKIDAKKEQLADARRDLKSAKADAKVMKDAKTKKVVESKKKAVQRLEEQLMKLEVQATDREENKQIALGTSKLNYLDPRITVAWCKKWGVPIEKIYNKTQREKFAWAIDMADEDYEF
In words: Inhibition of human DNA topoisomerase 1 assessed as decrease in relaxation of pBR322 at <= 20 uM after 30 to 40 mins by agarose gel electrophoresis.

For series [26], the system named is Calf thymus DNA. The series can be described thus: Binding affinity to calf thymus double stranded DNA at 10 uM by fluorescence spectrophotometer. Format: nucleic-acid assay. To be noted: Bos taurus.

Usually pIC50 stands for the IC50 on a negative log10 scale, so that one unit is a factor of ten. For orientation: pKd means the negative decadic logarithm of the Kd, by convention in mol/L.

pIC50, pKd: −log10 of the molar value. The source made the active and inactive calls. No cut-off for these calls is given here. Where only a bound is given, the exact number is not on record here.

`Cc1cc(O)c2c3c4c(cc(O)c13)C(C)(C)C(=O)c1c(O)c(CNC(C)(C)C)c(O)c(c1-4)C2=O`: the result in series [1], in series [3], in [12], in series [15], in [19] and in [20] was Active. In addition, the result in series [22] was Active. The negative logarithm of the IC50 (pIC50) is 6.30 in [2]; 6.52 in series [4]; 6.15 in series [6]; 6.22 in [7]; 5.06 in series [8]; 5.11 in series [11]. Further, the figures for the pIC50 in series [16], in series [17] and in series [18] were 6.52, 5.80 and 5.96, respectively. For the same molecule, the selectivity ratio in series [5], in series [9], in series [10], in series [13], in series [14] and in series [21] was 2 to 50 throughout.

Regarding `Cc1cc(O)c2c3c4c(cc(O)c13)C(C)(C)C(=O)c1c(O)c(CN(C)C)c(O)c(c1-4)C2=O`, the outcome in series [1], in series [3], in [12], in series [15], in series [26] and in series [19] was Active. The result in series [20] and in series [22] was Active. The selectivity ratio in [23], in series [5], in series [10], in series [14] and in series [21] was 2 to 50 each time. For the same molecule, the pIC50 was 6.15 in series [2]; 4.77 in series [4]; 4.55 in series [6]; 5.96 in series [7]; 4.77 in series [8]; 4.49 in series [11]. The results for the pIC50 in series [16], in [17] and in series [18] were 6.22, 6.00 and 5.33, respectively. For the same molecule, the pKd in [24] is 4.47. Also, the Kb in series [24] (Bos taurus) is 3 ×10⁴ /M. Also, in series [25], the “Topoisomerase 1 inhibition (active/inactive)” value was “Active”.

`Cc1cc(O)c2c3c4c(cc(O)c13)C(C)(C)C(=O)c1c(O)c(CN3CCCC3)c(O)c(c1-4)C2=O`: the pIC50 in series [2] is 5.92; in [4] it was 5.14; in series [6], 4.85; in series [7], 6.70; in series [8], 4.85; in [16], 7.00. The molecule also showed a pIC50 in [17] of 5.47.

For `Cc1cc(O)c2c3c4c(cc(O)c13)C(C)(C)C(=O)c1c(O)c(CNCCN(C)C)c(O)c(c1-4)C2=O`, the pIC50 in [2] was 5.66; in [4] it was 5.74; in series [6] it was 5.41; in [7], 6.70; in [8], 5.72; in series [16], 6.15. Also, in [17], the pIC50 is 5.66.

`Cc1cc(O)c2c3c4c(cc(O)c13)C(C)(C)C(=O)c1c(O)c(CN3CCOCC3)c(O)c(c1-4)C2=O`: the pIC50 is 5.07 in [2]; 4.62 in series [4]; 4.95 in series [6]; 6.52 in series [7]; 4.21 in [8]; 6.70 in series [16]. This molecule showed a pIC50 in [17] of 6.52.

In the case of `CCN(CC)Cc1c(O)c2c3c(c1O)C(=O)C(C)(C)c1cc(O)c4c(C)cc(O)c(c4c1-3)C2=O`, the negative-log IC50 (pIC50) in series [2] was 6.40; in series [4] it was 3.70; in series [6], below 3.60; in series [7], 5.96; in [8], below 3.60; in series [16], 6.30. In series [17], this molecule gave a negative logarithm of the IC50 (pIC50) of 6.52.

On to `Cc1cc(O)c2c3c4c(cc(O)c13)C(C)(C)C(=O)c1c(O)c(CN3CCCC(O)C3)c(O)c(c1-4)C2=O` (centres undefined), for which the pIC50 was 6.15 in series [2]; 5.68 in [4]; 5.44 in series [6]; 6.00 in series [7]; 5.47 in [8]; 6.05 in series [16]. This molecule gave a pIC50 in series [17] of 6.05.

`Cc1cc(O)c2c3c4c(cc(O)c13)C(C)(C)C(=O)c1c(O)c(CN3CCN(C)CC3)c(O)c(c1-4)C2=O`: the pIC50 in series [2] was 5.92; in series [4], 5.68; in series [6], 5.44; in series [7], 5.48; in series [8], 5.64; in series [16] it was 6.30. Further, the pIC50 in series [17] was 5.35.

With `Cc1cc(O)c2c3c4c(cc(O)c13)C(C)(C)C(=O)c1c(O)c(CN3CCC(N)C3)c(O)c(c1-4)C2=O` (centres undefined), the pIC50 in series [2] was 5.82; in series [4], 5.47; in series [6], 5.59; in series [7], 5.44; in [8] it was 5.54; in series [16], 5.96. For the same molecule, the pIC50 in [17] is 5.35.

Take `Cc1cc(O)c2c3c4c(cc(O)c13)C(C)(C)C(=O)c1c(O)c(CN3CCN(CCO)CC3)c(O)c(c1-4)C2=O`: the pIC50 is 5.57 in [2]; 5.28 in series [4]; 5.32 in series [6]; 5.43 in series [7]; 5.52 in series [8]; 5.89 in [16]. In series [17], this molecule gave a pIC50 of 5.38.

In the case of `Cc1cc(O)c2c3c4c(cc(O)c13)C(C)(C)C(=O)c1c(O)c(CN3CCCCC3)c(O)c(c1-4)C2=O`, the negative logarithm of the IC50 (pIC50) was 6.52 in series [2]; 6.05 in series [4]; 6.10 in [6]; 6.52 in series [7]; 5.47 in [8]; 7.00 in series [16]. Further, the pIC50 in series [17] is 6.10.

Take `Cc1cc(O)c2c3c4c(cc(O)c13)C(C)(C)C(=O)c1c(O)c(CN3CCNCC3)c(O)c(c1-4)C2=O`: the negative logarithm of the IC50 (pIC50) in [2] is 5.60; in [4], 5.25; in [6] it was 5.27; in [7], 5.32; in series [8], 5.38; in [16] it was 5.74. This molecule showed a negative logarithm of the IC50 (pIC50) in [17] of 5.24.

For `CCN1CCN(Cc2c(O)c3c4c(c2O)C(=O)C(C)(C)c2cc(O)c5c(C)cc(O)c(c5c2-4)C3=O)CC1`, the pIC50 in [2] was 6.05; in series [4] it was 6.10; in series [6], 6.10; in [7], 5.80; in [8] it was 6.10; in series [16] it was 5.77. Also, the negative-log IC50 (pIC50) in series [17] was 5.47.
